≈ marks a conversion by molar mass, not a printed value.
Columns and labels:
Assay type in all cases: functional
Staphylococcus aureus [1] = assay: Antibacterial activity against Staphylococcus aureus ATCC 29213 after 18 hrs by broth dilution method; conditions: ATCC 29213, 18 h
Staphylococcus aureus [2] = assay: Antibacterial activity against methicillin-resistant Staphylococcus aureus CCARM 3167 after 18 hrs by broth dilution method; conditions: CCARM 3167, 18 h
Staphylococcus aureus [3] = assay: Antibacterial activity against multidrug-resistant Staphylococcus aureus CCARM 3089 after 18 hrs by broth dilution method; conditions: CCARM 3089, 18 h

| SMILES | MIC (Staphylococcus aureus [1]) [µg/mL] | MIC (Staphylococcus aureus [2]) [µg/mL] | MIC (Staphylococcus aureus [3]) [µg/mL] |
| --- | --- | --- | --- |
| COc1cc(=O)oc2c1COC(C)(O)[C@H]2C (mixture of isomers) [CHLAMYDOSPOROL] | 31.5 | 31.5 | 62.5 |
| COc1cc(=O)oc2c1CO[C@@](C)(OC)[C@@]2(C)Br [BROMOMETHYLCHLAMYDOSPOROL A] | 15.6 (≈ 48.9 µM) | 15.6 (≈ 48.9 µM) | 15.6 (≈ 48.9 µM) |
| COc1c2c(oc(=O)c1Br)C(C)(Br)[C@](C)(OC)OC2 (some centres not stated) [BROMOMETHYLCHLAMYDOSPOROL B] | 15.6 (≈ 39.2 µM) | 15.6 (≈ 39.2 µM) | 15.6 (≈ 39.2 µM) |
| C/C=C(\C)[C@H]1[C@@H](/C=C/C=C(\C)[C@@H](O)[C@@H](C)CO)[C@@H]2C[C@@H]3O[C@]3(C)C[C@H]2[C@@H]2O[C@@]21C [FUSARIELIN A] | 31.5 (≈ 78.2 µM) | 31.5 (≈ 78.2 µM) | 62.5 (≈ 155 µM) |
